Assay results published in paper PMC7584622, “Sensing of autoinducer-2 by functionally distinct receptors in prokaryotes” (Nature Communications, 2020).
Values joined by “and” are separate entries in the source; they are usually repeats but may differ in a detail not shown here. Equal values may be shown once.

Assays:
KinD-LBD = target: T1, KinD-LBD (Bacillus subtilis, UniProt O31671); test: ITC binding to KinD-LBD; set-up: species or system B. subtilis; conditions: 700 μM DPD/AI-2 into 70 μM KinD-LBD
T1 construct: the LBD of HK KinD from B. subtilis; His6 (N, cleaved yes); made in house; host or cells: E. coli BL21(DE3) (pET-28a derivative)

PctB-LBD = PctB-LBD (Pseudomonas aeruginosa, UniProt Q9HW91); test: ITC binding to PctB-LBD; conditions: 700 μM DPD/AI-2 into 70 μM PctB-LBD, minor heats, not certain whether they reflect binding
Protocol: (§1) ITC experiments were performed at 20 °C using a Nano ITC Standard Volume isothermal calorimeter (TA Instruments, New Castle, DE). […] The stirring speed was 200 r.p.m. and 25 injections were used each experiment. Three independent experiments were performed for each sample. […] ITC data were analyzed and fit with a one-site independent binding model using the NanoAnalyze software version 3.4 provided by the manufacturer, with the heat of dilution subtracted from the experimental titrations before data analysis.

PctA-LBD D146A = target: T2, PctA-LBD D146A (Pseudomonas aeruginosa, UniProt G3XD24, D146A); test: biochemical; type: binding; conditions: PctA-LBD D146A 70 μM; DPD/AI-2 700 μM
T2 construct: Amino acids 30-278 and 36-360 of PctA and TlpQ, respectively; His6 (N, cleaved yes); made in house; host or cells: E. coli BL21(DE3) (pET-28a derivative)

P. aeruginosa PAO1 [1] = test: confocal laser-scanning microscopy of static biofilms (biovolume, COMSTAT); conditions: 100 nM DPD/AI-2
Protocol: Biofilms were stained with crystal violet and quantified using optical density measurement after incubation at 37 °C for 48 h. […] Images were reconstructed using the Imaris 9.0 software package (Bitplane, AG) (Supplementary Fig. 6) and biofilm biovolumes were quantified using COMSTAT (www.comstat.dk). Biovolumes were calculated from three biological replicates and each biological replicate was derived from an average of five confocal images.
For confocal laser-scanning microscopy and image analysis of static biofilms, overnight cultures of P. aeruginosa strains carrying pME6032-mCherry were diluted with TSB medium to an OD600 of 0.01 (~2 × 10^7 CFU ml^−1). […] The cultures were incubated at 37 °C under static conditions and biofilms were visualized using a Revolution XD laser-scanning confocal microscope (Andor, Belfast, Northern Ireland) after 1, 10, and 19 h. The excitation/emission wavelength for mCherry was 568/590 nm. Images were reconstructed using the Imaris 9.0 software package (Bitplane, AG) and the biovolumes were calculated using COMSTAT 2.1[46] plugin in ImageJ software (version 1.48). Biovolumes were measured and calculated from three biological replicates and each biological replicate was derived from an average of five confocal images.

LuxP = target: LuxP; set-up: method as in PMID 18215018; conditions: established receptor LuxP; cited from earlier work
rpHK1S-Z16-LBD = rpHK1S-Z16-LBD (Rhodopseudomonas palustris, UniProt Q6N3S7); test: ITC binding to rpHK1S-Z16-LBD; set-up: species or system R. palustris; conditions: 700 μM DPD/AI-2 into 70 μM rpHK1S-Z16-LBD
PctB-LBDE146D = target: T3, PctB-LBDE146D (Pseudomonas aeruginosa, UniProt Q9HW91, E146D); test: biochemical; type: binding; conditions: 700 μM DPD/AI-2 into 70 μM PctB-LBD E146D
T3 construct: the dCACHE-type LBDs of PctB and PctC; His6 (N, cleaved yes); made in house; host or cells: E. coli BL21(DE3) (pET-28a derivative)

PctC-LBD = PctC-LBD (Pseudomonas aeruginosa, UniProt Q9HW93); test: ITC binding to PctC-LBD; conditions: 700 μM DPD/AI-2 into 70 μM PctC-LBD, minor heats, not certain whether they reflect binding
Protocol: as §1

P. aeruginosa PAO1 [2] = test: quantitative capillary chemotaxis assay
PctA-LBD D173A = target: T4, PctA-LBD D173A (Pseudomonas aeruginosa, UniProt G3XD24, D173A); test: biochemical; type: binding; conditions: PctA-LBD D173A 70 μM; DPD/AI-2 700 μM
T4 construct: Amino acids 30-278 and 36-360 of PctA and TlpQ, respectively; His6 (N, cleaved yes); made in house; host or cells: E. coli BL21(DE3) (pET-28a derivative)

PctA-LBD M111A = target: T5, PctA-LBD M111A (Pseudomonas aeruginosa, UniProt G3XD24, M111A); test: biochemical; type: binding; conditions: PctA-LBD M111A 70 μM; DPD/AI-2 700 μM
T5 construct: Amino acids 30-278 and 36-360 of PctA and TlpQ, respectively; His6 (N, cleaved yes); made in house; host or cells: E. coli BL21(DE3) (pET-28a derivative)

PctA-LBD Y101A = target: T6, PctA-LBD Y101A (Pseudomonas aeruginosa, UniProt G3XD24, Y101A); test: biochemical; type: binding; conditions: PctA-LBD Y101A 70 μM; DPD/AI-2 700 μM
T6 construct: Amino acids 30-278 and 36-360 of PctA and TlpQ, respectively; His6 (N, cleaved yes); made in house; host or cells: E. coli BL21(DE3) (pET-28a derivative)

PctA-LBD A147F = target: T7, PctA-LBD A147F (Pseudomonas aeruginosa, UniProt G3XD24, A147F); test: biochemical; type: binding; conditions: PctA-LBD A147F 70 μM; DPD/AI-2 700 μM
T7 construct: Amino acids 30-278 and 36-360 of PctA and TlpQ, respectively; His6 (N, cleaved yes); made in house; host or cells: E. coli BL21(DE3) (pET-28a derivative)

rpHK1S-Z16 = test: in vitro DGC activity assay, c-di-GMP synthesis (HPLC); type: biochemical, R. palustris; conditions: 100 μM GTP, 30 °C
Protocol: The DGC activity of rpHK1S-Z16 was determined by measuring the synthesis of c-di-GMP using an HPLC-based method. […] The reaction was initiated by adding 100 μM GTP and the reaction was allowed to proceed for 0, 30 and 60 min at 30 °C. At indicated time points, 50 μl aliquots were removed and heated at 100 °C for 5 min. Denatured proteins were removed through centrifugation and the supernatants were filtered through a 0.22 μm membrane. Samples were injected into an HPLC (Agilent 1260 infinity II) system equipped with a C18 reversed-phase column and a UV detector. Components were eluted isocratically with 98% A (150 mM Na2HPO4, pH 5.2) and 2% B (acetonitrile) in 15 min at a flow rate of 1 ml min^−1. The detection wavelength was 252 nm. GTP (Sigma, Cat# G8877) and c-di-GMP (Sigma, Cat# SML1228) were run as standards. The levels of synthesized c-di-GMP in the supernatants were determined from the standard curve obtained using known concentrations of c-di-GMP.

T3 sequence (Q9HW91 32-276 E146D): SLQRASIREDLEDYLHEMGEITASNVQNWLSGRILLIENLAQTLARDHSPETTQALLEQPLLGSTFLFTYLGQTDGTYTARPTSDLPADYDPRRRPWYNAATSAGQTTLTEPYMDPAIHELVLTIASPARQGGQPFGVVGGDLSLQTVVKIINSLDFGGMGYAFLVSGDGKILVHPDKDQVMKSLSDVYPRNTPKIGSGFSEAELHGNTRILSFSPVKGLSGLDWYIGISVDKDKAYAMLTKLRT
PctB-LBD, sequence (Q9HW91 32-276): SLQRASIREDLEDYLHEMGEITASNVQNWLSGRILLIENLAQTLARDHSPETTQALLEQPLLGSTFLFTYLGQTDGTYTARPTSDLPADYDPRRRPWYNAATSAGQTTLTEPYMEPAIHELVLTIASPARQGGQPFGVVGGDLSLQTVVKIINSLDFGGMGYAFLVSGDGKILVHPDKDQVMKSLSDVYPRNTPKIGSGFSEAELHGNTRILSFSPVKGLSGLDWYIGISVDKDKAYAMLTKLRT
T2 sequence (G3XD24 30-278 D146A): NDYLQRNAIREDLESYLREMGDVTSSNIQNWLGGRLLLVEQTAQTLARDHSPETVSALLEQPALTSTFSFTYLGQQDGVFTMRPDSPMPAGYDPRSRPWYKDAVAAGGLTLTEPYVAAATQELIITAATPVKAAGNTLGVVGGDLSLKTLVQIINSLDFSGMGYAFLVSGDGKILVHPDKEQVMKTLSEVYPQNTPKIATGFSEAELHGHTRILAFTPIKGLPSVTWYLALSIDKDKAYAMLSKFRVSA
rpHK1S-Z16-LBD, sequence (Q6N3S7 entry or part of it): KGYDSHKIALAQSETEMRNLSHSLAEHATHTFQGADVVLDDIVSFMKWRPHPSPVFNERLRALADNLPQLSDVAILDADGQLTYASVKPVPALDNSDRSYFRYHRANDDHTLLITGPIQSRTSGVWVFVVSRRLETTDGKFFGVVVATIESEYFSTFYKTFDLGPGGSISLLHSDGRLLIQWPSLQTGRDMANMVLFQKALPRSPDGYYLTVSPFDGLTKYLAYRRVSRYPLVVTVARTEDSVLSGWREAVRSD
T7 sequence (G3XD24 30-278 A147F): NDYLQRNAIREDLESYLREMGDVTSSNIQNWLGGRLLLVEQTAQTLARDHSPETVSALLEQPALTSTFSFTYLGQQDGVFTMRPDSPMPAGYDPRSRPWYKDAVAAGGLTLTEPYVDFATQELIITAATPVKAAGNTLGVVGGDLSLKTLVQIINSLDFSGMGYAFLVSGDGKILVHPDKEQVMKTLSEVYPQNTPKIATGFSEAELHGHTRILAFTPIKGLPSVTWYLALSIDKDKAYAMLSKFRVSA
T6 sequence (G3XD24 30-278 Y101A): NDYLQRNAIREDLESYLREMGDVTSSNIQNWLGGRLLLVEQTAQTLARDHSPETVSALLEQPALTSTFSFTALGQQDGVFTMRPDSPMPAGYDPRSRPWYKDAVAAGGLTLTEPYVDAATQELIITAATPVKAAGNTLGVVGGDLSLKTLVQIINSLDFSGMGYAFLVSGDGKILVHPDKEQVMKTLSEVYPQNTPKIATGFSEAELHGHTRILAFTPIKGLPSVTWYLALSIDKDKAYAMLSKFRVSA
T4 sequence (G3XD24 30-278 D173A): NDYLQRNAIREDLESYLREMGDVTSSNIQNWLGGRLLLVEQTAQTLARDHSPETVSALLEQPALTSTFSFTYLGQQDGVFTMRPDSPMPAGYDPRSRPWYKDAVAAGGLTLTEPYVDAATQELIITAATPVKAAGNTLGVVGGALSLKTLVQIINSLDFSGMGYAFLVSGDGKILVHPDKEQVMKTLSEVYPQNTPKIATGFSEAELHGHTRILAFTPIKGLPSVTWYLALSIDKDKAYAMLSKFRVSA
T1 sequence (O31671 37-250): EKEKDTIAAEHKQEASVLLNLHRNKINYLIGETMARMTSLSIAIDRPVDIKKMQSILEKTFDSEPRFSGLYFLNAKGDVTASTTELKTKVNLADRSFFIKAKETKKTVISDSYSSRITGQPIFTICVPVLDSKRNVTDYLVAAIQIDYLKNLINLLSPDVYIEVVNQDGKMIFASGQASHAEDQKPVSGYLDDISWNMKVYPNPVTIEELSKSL
PctC-LBD, sequence (Q9HW93 32-279): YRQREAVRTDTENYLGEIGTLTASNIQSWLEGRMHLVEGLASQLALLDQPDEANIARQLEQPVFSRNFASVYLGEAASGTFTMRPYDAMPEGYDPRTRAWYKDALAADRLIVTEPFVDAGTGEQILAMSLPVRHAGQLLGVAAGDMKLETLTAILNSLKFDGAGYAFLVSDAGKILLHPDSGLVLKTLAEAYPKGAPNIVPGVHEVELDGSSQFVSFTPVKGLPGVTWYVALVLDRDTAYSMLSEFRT
T5 sequence (G3XD24 30-278 M111A): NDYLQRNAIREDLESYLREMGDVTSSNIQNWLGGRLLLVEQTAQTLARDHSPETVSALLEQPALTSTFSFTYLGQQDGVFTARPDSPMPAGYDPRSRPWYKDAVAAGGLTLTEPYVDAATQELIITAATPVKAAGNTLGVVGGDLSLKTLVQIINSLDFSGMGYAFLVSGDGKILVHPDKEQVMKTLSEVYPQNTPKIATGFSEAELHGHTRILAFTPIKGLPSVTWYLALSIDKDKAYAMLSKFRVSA

CC(=O)C(=O)C(O)CO (stereo not shown) [DPD/AI-2, 4,5-dihydroxy-2,3-pentanedione]
Kd (KinD-LBD): 0.12 µM and 0.16 µM and 0.15 µM | Kd (PctB-LBD): 205 µM and 176 µM and 163 µM | Kd (PctA-LBD D146A): 39 µM and 30 µM and 31 µM | Biovolume of P. aeruginosa (P. aeruginosa PAO1 [1]; WT, 1 h): 28364 μm3 mm-2 and 23058 μm3 mm-2 and 27608 μm3 mm-2 | Biovolume of P. aeruginosa (P. aeruginosa PAO1 [1]; WT, 10 h): 1281908 μm3 mm-2 and 1109100 μm3 mm-2 and 1052160 μm3 mm-2 | Biovolume of P. aeruginosa (P. aeruginosa PAO1 [1]; WT, 19 h): 3128446 μm3 mm-2 and 3141281 μm3 mm-2 and 3321156 μm3 mm-2 | Biovolume of P. aeruginosa (P. aeruginosa PAO1 [1]; ΔpctA, 1 h): 25418 μm3 mm-2 and 25743 μm3 mm-2 and 24604 μm3 mm-2 | Biovolume of P. aeruginosa (P. aeruginosa PAO1 [1]; ΔpctA, 10 h): 609991 μm3 mm-2 and 657748 μm3 mm-2 and 721040 μm3 mm-2 | Biovolume of P. aeruginosa (P. aeruginosa PAO1 [1]; ΔpctA, 19 h): 1305959 μm3 mm-2 and 1192157 μm3 mm-2 and 1109432 μm3 mm-2 | Biovolume of P. aeruginosa (P. aeruginosa PAO1 [1]; ΔpctAΔtlpQ, 1 h): 24520 μm3 mm-2 and 23099 μm3 mm-2 and 23881 μm3 mm-2 | Biovolume of P. aeruginosa (P. aeruginosa PAO1 [1]; ΔpctAΔtlpQ, 10 h): 372013 μm3 mm-2 and 288390 μm3 mm-2 and 355734 μm3 mm-2 | Biovolume of P. aeruginosa (P. aeruginosa PAO1 [1]; ΔpctAΔtlpQ, 19 h): 111554 μm3 mm-2 and 108961 μm3 mm-2 and 114758 μm3 mm-2 | Biovolume of P. aeruginosa (P. aeruginosa PAO1 [1]; ΔtlpQ, 1 h): 22029 μm3 mm-2 and 31306 μm3 mm-2 and 26285 μm3 mm-2 | Biovolume of P. aeruginosa (P. aeruginosa PAO1 [1]; ΔtlpQ, 10 h): 645081 μm3 mm-2 and 690688 μm3 mm-2 and 715157 μm3 mm-2 | Biovolume of P. aeruginosa (P. aeruginosa PAO1 [1]; ΔtlpQ, 19 h): 1292148 μm3 mm-2 and 1288991 μm3 mm-2 and 1359959 μm3 mm-2 | Kd (LuxP): 0.16 µM | Kd (rpHK1S-Z16-LBD): 0.13 µM and 0.19 µM and 0.21 µM | Kd (PctB-LBDE146D): 0.22 µM and 0.27 µM and 0.23 µM | Kd (PctC-LBD): 94 µM and 118 µM and 86 µM | Cells per capillary (P. aeruginosa PAO1 [2]; 1 μM DPD/AI-2, PAO1, 30 min, buffer capillary subtracted): 3700 and 4300 and 4700 and 2900 and 5300 | Cells per capillary (P. aeruginosa PAO1 [2]; 10 μM DPD/AI-2, PAO1, 30 min, buffer capillary subtracted): 9900 and 11300 and 14200 and 11400 and 10800 | Cells per capillary (P. aeruginosa PAO1 [2]; 100 μM DPD/AI-2, PAO1, 30 min, buffer capillary subtracted): 30800 and 31500 and 39700 and 42100 and 39200 | Cells per capillary (P. aeruginosa PAO1 [2]; 1000 μM DPD/AI-2, PAO1, 30 min, buffer capillary subtracted): 23500 and 25700 and 24700 and 27800 and 19800 | concentration of optimal chemotactic response (P. aeruginosa PAO1 [2]; P. aeruginosa PAO1, capillary, 30 min): 100 µM | Cells per capillary (P. aeruginosa PAO1 [2]; strain ΔPA1608, 100 μM DPD/AI-2, Fig. 1d): 37200 and 36700 and 39700 and 37700 and 35300 | Cells per capillary (P. aeruginosa PAO1 [2]; strain ΔPA1646, 100 μM DPD/AI-2, Fig. 1d): 37700 and 38800 and 33600 and 35400 and 35300 | Cells per capillary (P. aeruginosa PAO1 [2]; strain ΔPA2573, 100 μM DPD/AI-2, Fig. 1d): 39200 and 34600 and 39900 and 36000 and 39600 | Cells per capillary (P. aeruginosa PAO1 [2]; strain ΔPA2652, 100 μM DPD/AI-2, Fig. 1d): 38500 and 34500 and 34200 and 36900 and 36500 | Cells per capillary (P. aeruginosa PAO1 [2]; strain ΔPA2788, 100 μM DPD/AI-2, Fig. 1d): 33800 and 38800 and 38900 and 36100 and 38600 | Cells per capillary (P. aeruginosa PAO1 [2]; strain ΔPA2867, 100 μM DPD/AI-2, Fig. 1d): 38500 and 34300 and 34100 and 37600 and 33900 | Cells per capillary (P. aeruginosa PAO1 [2]; strain ΔPA2920, 100 μM DPD/AI-2, Fig. 1d): 36800 and 33100 and 39300 and 35100 | Cells per capillary (P. aeruginosa PAO1 [2]; strain ΔPA4290, 100 μM DPD/AI-2, Fig. 1d): 35800 and 35100 and 37600 and 35000 and 38600 | Cells per capillary (P. aeruginosa PAO1 [2]; strain ΔPA4520, 100 μM DPD/AI-2, Fig. 1d): 33900 and 37400 and 33500 and 36700 | Cells per capillary (P. aeruginosa PAO1 [2]; strain ΔPA4633, 100 μM DPD/AI-2, Fig. 1d): 35700 and 39100 | Cells per capillary (P. aeruginosa PAO1 [2]; strain Δaer, 100 μM DPD/AI-2, Fig. 1d): 36600 and 36200 and 39600 and 36400 and 37100 | Cells per capillary (P. aeruginosa PAO1 [2]; strain ΔctpH, 100 μM DPD/AI-2, Fig. 1d): 38900 and 35200 and 37100 and 35400 and 36800 | Cells per capillary (P. aeruginosa PAO1 [2]; strain ΔmcpS, 100 μM DPD/AI-2, Fig. 1d): 36800 and 35200 and 37500 and 35600 and 39600 | Cells per capillary (P. aeruginosa PAO1 [2]; strain ΔpctA, 100 μM DPD/AI-2, Fig. 1d): 21400 and 23800 and 20800 and 21700 and 21800 | Cells per capillary (P. aeruginosa PAO1 [2]; strain ΔpctB, 100 μM DPD/AI-2, Fig. 1d): 37100 and 39500 and 37300 and 38300 and 35300 | Cells per capillary (P. aeruginosa PAO1 [2]; strain ΔpctC, 100 μM DPD/AI-2, Fig. 1d): 35300 and 37100 and 37200 and 36800 and 35800 | Cells per capillary (P. aeruginosa PAO1 [2]; strain ΔtlpQ, 100 μM DPD/AI-2, Fig. 1d): 26100 and 28500 and 25300 and 27300 and 24300 | Kd (PctA-LBD D173A): 12 µM and 14 µM and 13 µM and 10 µM | Kd (PctA-LBD M111A): 14 µM and 21 µM and 17 µM | Kd (PctA-LBD Y101A): 33 µM and 42 µM and 34 µM | Kd (PctA-LBD A147F): 11 µM and 10 µM and 12 µM | Concentration of c-di-GMP (rpHK1S-Z16; 100 μM DPD/AI-2, 30 min): 25.52 µM and 26.85 µM and 25.80 µM | Concentration of c-di-GMP (rpHK1S-Z16; 100 μM DPD/AI-2, 60 min): 33.20 µM and 34.39 µM and 33.48 µM | Concentration of c-di-GMP (rpHK1S-Z16; 200 μM DPD/AI-2, 30 min): 34.46 µM and 32.43 µM and 32.71 µM | Concentration of c-di-GMP (rpHK1S-Z16; 200 μM DPD/AI-2, 60 min): 45.28 µM and 43.18 µM and 41.92 µM
